“And” between values parts separate entries of the source, which are not always exact repeats. Equal entries are not always repeated. Where two headings read alike, the source gives them in different places. Marks after values point to notes of the source that are not given here.
Columns and labels:
[1] = healthy volunteers, ref Goldberg et al. 26, cited from earlier work; for AUC: 10 Kalamata olives
[2] = ref Serra et al. 23, cited from earlier work
[3] = Plasma pharmacokinetics (noncompartmental analysis) after single oral administration of Arbequina table olives; format: in vivo, Sprague-Dawley rats; details: for Cmax/D: D = dose of hydroxytyrosol in nmol; for AUC0–∞/D / AUCt/D: D in nmol; for AUCt: time zero up to 8 h; for Tmax: median (min, max); for k el: read-out: λz (apparent elimination rate constant) (converted); for Cmax: read-out: Peak plasma concentration (Cmax), text value with ± spread
Experimental: The experiments were performed using Sprague–Dawley rats (n = 13) randomly divided into two groups, the 30 olives group (n = 6) that received the dose of 3.85 g/kg and the 60 olives group (n = 7), which was given the dose of 7.70 g/kg. The freshly prepared homogeneous suspensions were given to overnight fasted rats by oral gavage (18-gauge × 76 mm, ref FFSS-186-76, Instech Laboratories, Inc., Plymouth Meeting, PA). The volume of administration was 10 mL/kg. After the single administration of Arbequina table olives, blood was obtained at 30, 60, 90, 120, 240, 360, and 480 min from each animal. Samples were withdrawn from the lateral saphenous vein and placed into Microvette CB 300 K2 EDTA-K2 (Sarstedt, Granollers, Spain) coated tubes.[31] At each time point, 0.40 mL of blood was collected, meaning that a maximum of 2.4 mL was obtained from each animal. […] Blood corresponding to 480 min was taken by a cardiac puncture with the animal under terminal anesthesia. Plasma was immediately obtained by centrifugation at 1500g at 4 °C for 15 min (Centrifuge Megafuge 1.0R, Heraeus, Boadilla, Spain) and kept at −20 °C until analysis.
Hydroxytyrosol and its metabolites in plasma were determined by liquid–liquid extraction followed by LC-MS/MS analysis as previously described.[11] Briefly, 200 μL of plasma was mixed with 10 μL of freshly prepared 10% ascorbic acid followed by 10 μL of 0.5% acetic acid and 10 μL of 2-(3-hydroxyphenyl) ethanol (10 μM, I.S.). Then, 2 mL of ethyl acetate was added to the samples that were vigorously mixed in a vortex (5 min), placed into an ultrasonic bath (10 min), and centrifuged at 1500g at 4 °C (15 min) (Centrifuge Megafuge 1.0R). A second extraction of the pellet with 2 mL of ethyl acetate was carried out. Subsequently, the two pooled supernatants were evaporated to dryness, reconstituted with 100 μL of 80% methanol, placed into amber vials, and immediately analyzed by LC-MS/MS.
The plasmatic concentrations were calculated by the interpolation of the peak area ratio of hydroxytyrosol versus I.S. on a calibration curve. Calibration standards were constructed with blank plasma obtained by cardiac puncture from overnight fasted rats that had never received either table olives or hydroxytyrosol. […] Results were expressed in nmol per liter of plasma (nmol/L). The method was validated following the EMA guidelines[33] at six different concentrations ranging from 0 to 250 nmol/L analyzed on three different days.
Individual PK of hydroxytyrosol and its metabolites were estimated from the plasma concentrations versus time profiles of each animal, through a noncompartmental analysis (NCA) with Phoenix-64 (Build 8.3.4.295, Certara, Princeton, N.J., USA). All concentrations of each pharmacokinetic profile were considered for NCA because the values obtained were above the LOQ. Peak plasma concentration (Cmax) and time to peak plasma concentration (Tmax) were determined by visual inspection of the pharmacokinetic profiles. The apparent elimination rate constant (λz) was estimated from the terminal slope of the semilogarithmic concentration–time curve. The apparent elimination half-life (t1/2λz) was calculated as t1/2z = 0.693/λz. The area under the plasma concentration–time curve from time zero to the last experimental time (AUCt) with analyte concentrations above the LOQ, was calculated by the linear-log trapezoidal rule. The area from time zero to infinity (AUC0–∞) was calculated by adding to the AUCt value the extrapolated area calculated as the ratio between the predicted concentration (Ct) at the last sampling time with concentrations above the LOQ and λz. The mean residence time (MRT0–∞) was given by the ratio of the area under the first-moment curve (AUMC0–∞) to the area under the zero-moment curve (AUC0–∞). The ratio indicating the relative exposure of each metabolite with respect to hydroxytyrosol (AUC0–∞m/AUC0–∞) was also calculated for all of the metabolites. […]

[4] = 30 olives group (hydroxytyrosol 2.95 mg/kg oral), geometric mean (95% CI)
[5] = 60 olives group (hydroxytyrosol 5.89 mg/kg oral), geometric mean (95% CI)

Structure (SMILES): OCCc1ccc(O)c(O)c1 [hydroxytyrosol]
- Cmax ([1]; 10 Kalamata olives with 389.87 mg hydroxytyrosol/kg, parent compound): 0.64 nM
- AUC ([1]; converted unit): 0.65 nM·h
- AUC [1]: 0.65 nM·h
- share in rat plasma ([2]; after phenolic extract from olive cake containing 10.35 mg/kg of hydroxytyrosol): 6%
- Tmax ([2]; sampling times limited to 1, 2 and 4 h): 2 h
- AUC0–∞ ([3]; 30 olives group (3.85 g olives/kg, hydroxytyrosol 2.95 mg/kg oral), geometric mean (95% CI)): 4293 min·nmol/L and 4293 (3815, 4830)^a min·nmol/L
- Cmax/D [3, 4]: 0.0044 (0.0026, 0.0077)^a
- AUC0–∞/D [3, 4]: 0.8149 (0.7420, 0.8949)^a
- AUCt/D [3, 4]: 0.6383 (0.5153, 0.7907)^a
- Vss/F (apparent steady-state volume of distribution) [3, 4]: 1139 (671.4, 1932)^a L/kg
- AUCt [3, 4]: 3363 (2642, 4280)a min·nmol/L
- AUC0–∞ ([3]; 60 olives group (7.70 g olives/kg, hydroxytyrosol 5.89 mg/kg oral), geometric mean (95% CI)): 8919 min·nmol/L and 8919 (6920, 11495)^b min·nmol/L
- Cmax/D [3, 5]: 0.0039 (0.0028, 0.0053)^a
- AUC0–∞/D [3, 5]: 0.7993 (0.6170, 1.035)^a
- AUCt/D [3, 5]: 0.7091 (0.5407, 0.9300)^a
- Vss/F (apparent steady-state volume of distribution) [3, 5]: 882.8 (674.2, 1161)^a L/kg
- Tmax ([3]; 60 olives group (hydroxytyrosol 5.89 mg/kg oral)): 41 (33, 68)^a min
- AUCt [3, 5]: 7912 (6031, 10381)^b min·nmol/L
- half-life ([3]; Sprague-Dawley, rat, plasma, oral, both doses, assuming first-order absorption, read-out: absorption half-life inferred from Cmax/AUC): 2.1 to 2.4 h
- CL/F ([3]; Sprague-Dawley, rat, plasma, oral, both doses, read-out: Cl/F): ~258 L/h/kg
- Vd/F ([3]; Sprague-Dawley, rat, plasma, oral, both doses, read-out: Vss/F or Vdarea/F): ~1000 L/kg
- Vd/F ([3]; Sprague-Dawley, rat, plasma, po, 2.95 mg/kg, 30 olives group (hydroxytyrosol 2.95 mg/kg oral), geometric mean (95% CI), read-out: Vdarea/F (apparent volume of distribution, terminal phase)): 1070 L/kg
- Vd/F ([3]; Sprague-Dawley, rat, plasma, po, 2.95 mg/kg, 30 olives group (hydroxytyrosol 2.95 mg/kg oral), geometric mean (95% CI), read-out: Vss/F (apparent steady-state volume of distribution)): 1140 L/kg
- half-life ([3]; Sprague-Dawley, rat, plasma, po, 2.95 mg/kg, 30 olives group (hydroxytyrosol 2.95 mg/kg oral), geometric mean (95% CI), read-out: t1/2λz (apparent elimination half-life)): 2.77 h
- Tmax ([3]; Sprague-Dawley, rat, plasma, po, 2.95 mg/kg, 30 olives group (hydroxytyrosol 2.95 mg/kg oral), read-out: Tmax (converted)): ~1 h
- Vd/F ([3]; Sprague-Dawley, rat, plasma, po, 5.89 mg/kg, 60 olives group (hydroxytyrosol 5.89 mg/kg oral), geometric mean (95% CI), read-out: Vdarea/F (apparent volume of distribution, terminal phase)): 678 L/kg
- Vd/F ([3]; Sprague-Dawley, rat, plasma, po, 5.89 mg/kg, 60 olives group (hydroxytyrosol 5.89 mg/kg oral), geometric mean (95% CI), read-out: Vss/F (apparent steady-state volume of distribution)): 883 L/kg
- half-life ([3]; Sprague-Dawley, rat, plasma, po, 5.89 mg/kg, 60 olives group (hydroxytyrosol 5.89 mg/kg oral), geometric mean (95% CI), read-out: t1/2λz (apparent elimination half-life)): 1.83 h
- Tmax ([3]; Sprague-Dawley, rat, plasma, po, 5.89 mg/kg, 60 olives group (hydroxytyrosol 5.89 mg/kg oral), read-out: Tmax (converted)): ~0.667 h
- half-life ([3]; Sprague-Dawley, rat, plasma, po, both doses (30 and 60 olives groups), oral table olives, read-out: half-life (t1/2λz) (converted)): ~2.5 h
- CL/F ([3]; Sprague-Dawley, rat, plasma, 30 olives group (hydroxytyrosol 2.95 mg/kg oral), geometric mean (95% CI), read-out: Cl/F (apparent clearance)): 268 L/h/kg
- MRT inf ([3]; Sprague-Dawley, rat, plasma, 30 olives group (hydroxytyrosol 2.95 mg/kg oral), geometric mean (95% CI), read-out: MRT0–∞ (converted)): 4.26 h
- k el ([3]; Sprague-Dawley, rat, plasma, 30 olives group (hydroxytyrosol 2.95 mg/kg oral), geometric mean (95% CI)): 7e-05 s⁻¹
- Cmax ([3]; Sprague-Dawley, rat, plasma, 30 olives group (hydroxytyrosol 2.95 mg/kg oral)): 23.4 ± 1.68 nM
- CL/F ([3]; Sprague-Dawley, rat, plasma, 60 olives group (hydroxytyrosol 5.89 mg/kg oral), geometric mean (95% CI), read-out: Cl/F (apparent clearance)): 257 L/h/kg
- MRT inf ([3]; Sprague-Dawley, rat, plasma, 60 olives group (hydroxytyrosol 5.89 mg/kg oral), geometric mean (95% CI), read-out: MRT0–∞ (converted)): 3.44 h
- k el ([3]; Sprague-Dawley, rat, plasma, 60 olives group (hydroxytyrosol 5.89 mg/kg oral), geometric mean (95% CI)): 0.000105 s⁻¹
- Cmax ([3]; Sprague-Dawley, rat, plasma, 60 olives group (hydroxytyrosol 5.89 mg/kg oral)): 43 ± 1.39 nM
- MRT inf ([3]; Sprague-Dawley, rat, plasma, both doses (30 and 60 olives groups), oral table olives, read-out: mean residence time (MRT0–∞)): ~4 h
- PK behaviour between doses (dose linearity) ([3]; between doses of 2.95 and 5.85 mg hydroxytyrosol/kg, noncompartmental analysis): linear PK
- percentage of the AUC of each compound divided by the AUC of the sum of all of them ([3]; both doses (similar ratios between doses), plasma): 11%

Source: PMC10835732, “Pharmacokinetics of Hydroxytyrosol and Its Sulfate and Glucuronide Metabolites after the Oral Administration of Table Olives to Sprague-Dawley Rats” (Journal of Agricultural and Food Chemistry, 2024)
